Here are results for two compounds from US20130078224A1, “INDUCTION/MONITORING OF ARTERIOGENESIS USING SDF1 AND PDGFB OR INHIBITION OF PHD2” (LIFE SCIENCES RESEARCH PARTNERS VZW, priority 2010, published 2013).

The conditions of series [1]: early clinical trials in myocardial infarction; cited from earlier work.
The subject of series [2] is NF-κB. Nature of the series: NF-κB-responsive luciferase reporter assay in primary lung endothelial cells. The following applies: WT and PHD2+/- ECs, TNF-α 20 ng/mL, eight hours. Format: cell-based, mice. The procedure:
Transduction and Transfection of Bone Marrow-Derived Macrophages and Lung Endothelial Cells: To express an inducible NF-κB responsive firefly luciferase reporter, commercially available lentiviral vector particles (LV) were used (Cignal Lenti NF-κB Reporter; SABiosciences). 2.5×10^5 bone marrow-derived macrophages and 10^5 primary lung endothelial cells (isolated as previously described (Mazzone et al., 2009, see above)) were seeded in a 24-well plate in DMEM 10% FBS or M199 20% FBS for eight hours. Cells were transduced with 10^8 TU/ml. Eight hours after transduction, the medium wash was replaced. After 48 hours, cells were stimulated with TNFα (20 ng/mL) for eight hours and the same amount of protein extract was read in a luminometer. For PHD3 silencing, siRNA oligonucleotides were designed using the Invitrogen online siRNA design tool (world wide web at maidesigner.invitrogen.com). The following sequences (sense strands) and target positions were used: PHD3 siRNA: 5′-[…]-3′ (SEQ ID NO:1); scramble siRNA:5′-[…]-3′ (SEQ ID NO:2). In brief, one day after the transduction of macrophages with LV, cells were transfected using Lipofectamine 2000 (Invitrogen) according to the manufacturer's instructions. Preparation of the oligonucleotide-Lipofectamine 2000 complexes was done as followed: 25 pmol siRNA oligonucleotide (stock: 20 μM) was diluted in 50 μl Opti-MEM I reduced serum medium. […]

Series [3] has as its system NF-κB. The series can be described thus: NF-κB-responsive firefly luciferase reporter assay in bone marrow-derived macrophages. It counts as cell-based, mice. The following applies: PHD2 haplodeficient vs WT macrophages. The procedure: Transduction and Transfection of Bone Marrow-Derived Macrophages and Lung Endothelial Cells: To express an inducible NF-κB responsive firefly luciferase reporter, commercially available lentiviral vector particles (LV) were used (Cignal Lenti NF-κB Reporter; SABiosciences). 2.5×10^5 bone marrow-derived macrophages and 10^5 primary lung endothelial cells (isolated as previously described (Mazzone et al., 2009, see above)) were seeded in a 24-well plate in DMEM 10% FBS or M199 20% FBS for eight hours. Cells were transduced with 10^8 TU/ml. Eight hours after transduction, the medium wash was replaced. After 48 hours, cells were stimulated with TNFα (20 ng/mL) for eight hours and the same amount of protein extract was read in a luminometer. For PHD3 silencing, siRNA oligonucleotides were designed using the Invitrogen online siRNA design tool (world wide web at maidesigner.invitrogen.com). The following sequences (sense strands) and target positions were used: PHD3 siRNA: 5′-[…]-3′ (SEQ ID NO:1); scramble siRNA:5′-[…]-3′ (SEQ ID NO:2). In brief, one day after the transduction of macrophages with LV, cells were transfected using Lipofectamine 2000 (Invitrogen) according to the manufacturer's instructions. Preparation of the oligonucleotide-Lipofectamine 2000 complexes was done as followed: 25 pmol siRNA oligonucleotide (stock: 20 μM) was diluted in 50 μl Opti-MEM I reduced serum medium. Lipofectamine 2000 (1.5 μl) was diluted in 50 μl Opti-MEM I reduced serum medium and incubated for five minutes at room temperature. siRNA oligonucleotides were gently mixed with Lipofectamine 2000 and allowed to incubate at room temperature for twenty minutes to form complexes. Just before transfection, the cell culture medium was removed and cells were rinsed twice with serum-free Opti-MEM I medium. The Lipofectamine 2000-siRNA oligonucleotide complexes were added to each well in 400 μl of serum-free Opti-MEM medium for five hours. Afterwards, cells were incubated in complete medium for 48 hours at 37° C. in a CO2 incubator and assayed for gene knockdown (qRT-PCR) and luciferase activity. To assess if the increased NFkB activity observed in PHD2^+/− macrophages was dependent on the hydroxylase activity of PHD2, 48 hours before transduction, 4×10^6 bone marrow-derived macrophages were resuspended in 240 μl of Opti-MEM and were electroporated (250 V, 950 uF, ∝ Ω) with 7 μg of plasmids expressing a wild-type PHD2 (PHD2^wt) or a PHD2 containing a mutation at the catalytic site (PHD2^H313A).
Background: A reporter such as luciferase makes a cellular process visible.

`C[C@H]1C[C@@H]2[C@H]([C@@H](O)C[C@@]3(C)[C@H]2CC[C@]3(O)C(=O)CO)[C@@]2(C)C=CC(=O)C=C12` [methylprednisolone]: the “mortality due to left ventricle rupture” value in series [1] is “drastically increased mortality”.
Regarding TNF-α, the NF-κB activity entry in the series on NF-κB [2] was “increases to the same level”. The “TNF-α-induced NF-κB activation” value in the series on NF-κB [3] is “significantly stronger”.
